Measurements reported in the supplement of paper PMC10307832.

How the values were obtained:
Assay in all cases: relative viability (nuclei count vs DMSO), 5 days (fraction); higher = more cells survive
[1] = compound: COc1cc(-c2nn([C@H]3CC[C@H](N4CCN(C(C)=O)CC4)CC3)c3ncnc(N)c23)ccc1NC(=O)c1cc2ccccc2n1C + COc1cccc2cc(-c3nc([C@H]4CC[C@H](C(=O)O)CC4)n4ncnc(N)c34)[nH]c12 [OSI-027] (partner 0.5 µM)
Procedure, shortened: (§1)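 Relative viability equals treated-well nuclei counts divided by vehicle-well nuclei counts. Counts came from 4× images of lung cancer cell lines grown in 1536-well plates for 5 days after pin-tool dosing on the day after seeding. Dosing used one drug alone or a fixed anchor-drug dose plus five library-drug doses (not always all listed) in √10 steps, and values are medians of duplicate plates.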

Midostaurin + Luminespib = compound: CO[C@@H]1[C@H](N(C)C(=O)c2ccccc2)C[C@H]2O[C@]1(C)n1c3ccccc3c3c4c(c5c6ccccc6n2c5c31)C(=O)NC4 [Midostaurin] + CCNC(=O)c1noc(-c2cc(C(C)C)c(O)cc2O)c1-c1ccc(CN2CCOCC2)cc1 [Luminespib] (partner 0.01 µM)
Procedure, shortened: as §1

[2] = compound: COc1cc(-c2nn([C@H]3CC[C@H](N4CCN(C(C)=O)CC4)CC3)c3ncnc(N)c23)ccc1NC(=O)c1cc2ccccc2n1C + CCNC(=O)c1noc(-c2cc(C(C)C)c(O)cc2O)c1-c1ccc(CN2CCOCC2)cc1 [Luminespib] (partner 0.01 µM)
Procedure, shortened: as §1

[3] = compound: COc1cc(-c2nn([C@H]3CC[C@H](N4CCN(C(C)=O)CC4)CC3)c3ncnc(N)c23)ccc1NC(=O)c1cc2ccccc2n1C + CS(=O)(=O)CCNCc1ccc(-c2ccc3ncnc(Nc4ccc(OCc5cccc(F)c5)c(Cl)c4)c3c2)o1 [Lapatinib] (partner 2 µM)
Procedure, shortened: as §1

Midostaurin + Pemetrexed = compound: CO[C@@H]1[C@H](N(C)C(=O)c2ccccc2)C[C@H]2O[C@]1(C)n1c3ccccc3c3c4c(c5c6ccccc6n2c5c31)C(=O)NC4 [Midostaurin] + Nc1nc2[nH]cc(CCc3ccc(C(=O)N[C@@H](CCC(=O)O)C(=O)O)cc3)c2c(=O)[nH]1 [Pemetrexed] (partner 0.2 µM)
Procedure, shortened: as §1

| Cell Line | relative viability ([1]; first compound 0.0128 µM) | relative viability ([1]; first compound 0.04048 µM) | relative viability ([1]; first compound 0.128 µM) | relative viability ([1]; first compound 1.28 µM) | relative viability (Midostaurin + Luminespib; first compound 0.01 µM) | relative viability (Midostaurin + Luminespib; first compound 0.03162 µM) | relative viability (Midostaurin + Luminespib; first compound 0.1 µM) | relative viability (Midostaurin + Luminespib; first compound 0.3162 µM) | relative viability ([2]; first compound 0.0128 µM) | relative viability ([2]; first compound 0.04048 µM) | relative viability ([2]; first compound 0.128 µM) | relative viability ([2]; first compound 1.28 µM) | relative viability ([3]; first compound 0.0128 µM) | relative viability ([3]; first compound 0.04048 µM) | relative viability ([3]; first compound 0.128 µM) | relative viability ([3]; first compound 1.28 µM) | relative viability (Midostaurin + Pemetrexed; first compound 0.01 µM) | relative viability (Midostaurin + Pemetrexed; first compound 0.03162 µM) | relative viability (Midostaurin + Pemetrexed; first compound 0.1 µM) | relative viability (Midostaurin + Pemetrexed; first compound 0.3162 µM) |
| --- | --- | --- | --- | --- | --- | --- | --- | --- | --- | --- | --- | --- | --- | --- | --- | --- | --- | --- | --- | --- |
| 201T | 0.646 | 0.765 | 0.746 | 0.339 | 1.02 | 0.98 | 0.997 | 1.06 | 1.04 | 1.1 | 0.929 | 0.539 | 1.11 | 1.04 | 1 | 0.915 | 0.345 | 0.311 | 0.323 | 0.32 |
| A549 | – | – | – | – | – | – | – | – | – | – | – | – | 0.961 | 1.02 | 0.953 | 1.06 | – | – | – | – |
| A-427 | 0.497 | – | 0.456 | 0.45 | 0.869 | 0.905 | 0.753 | 0.953 | 1.16 | 0.867 | 0.895 | 0.794 | 1.18 | 0.944 | 0.852 | 0.907 | 1.04 | 0.888 | 0.94 | 1.08 |
| ABC-1 | 0.499 | 0.434 | 0.384 | 0.377 | – | 0.571 | 0.641 | 0.591 | 0.546 | 0.612 | – | 0.332 | 1.26 | 1.17 | 1.04 | 0.891 | – | – | – | – |
| BEN | 0.27 | 0.296 | 0.311 | 0.291 | 0.541 | 1.23 | 0.396 | 0.457 | 0.156 | 0.398 | 0.36 | 0.259 | 0.588 | 0.646 | 0.878 | 0.401 | 0.809 | 0.674 | 0.665 | 0.752 |
| CAL-12T | 0.638 | 0.497 | 0.7 | 0.461 | 0.174 | 0.172 | 0.212 | 0.174 | 0.281 | 0.417 | 0.348 | 0.267 | 0.615 | 0.686 | 0.659 | 0.384 | 1.19 | 1.19 | 1.28 | 0.765 |
| COR-L23 | 0.753 | 0.752 | 0.71 | 0.672 | 0.605 | 0.644 | 0.541 | 0.625 | 0.713 | 0.667 | 0.688 | 0.736 | 0.933 | 1.2 | 0.789 | 0.992 | 0.195 | 0.205 | 0.195 | 0.188 |
| Calu-6 | – | – | – | – | – | – | – | – | – | – | – | – | 1.08 | 1.01 | 0.91 | 0.875 | – | – | – | – |
| ChaGo-K-1 | 0.607 | 0.532 | 0.519 | 0.464 | 0.619 | 0.627 | 0.525 | 0.626 | 0.721 | 0.615 | 0.616 | 0.679 | – | – | – | – | 0.25 | 0.266 | 0.256 | 0.277 |
| EBC-1 | – | – | – | – | – | – | – | – | – | – | – | – | 0.203 | 0.23 | 0.205 | 0.19 | – | – | – | – |
| HCC-78 | 0.341 | 0.371 | 0.356 | 0.26 | – | – | – | – | – | – | – | – | 0.953 | 0.85 | 0.673 | 0.585 | 0.926 | 0.857 | 0.946 | 0.865 |
| HCC-366 | 0.803 | 0.347 | 0.882 | 0.772 | – | – | – | – | – | – | – | – | 1.09 | 0.998 | 1.07 | 0.66 | 0.156 | 0.15 | 0.153 | 0.156 |
| IA-LM | – | – | – | – | – | – | – | – | – | – | – | – | 0.83 | 1.16 | 0.79 | 1.15 | – | – | – | – |
| LCLC-103H | 0.47 | 0.469 | 0.493 | 0.417 | 0.906 | 0.875 | 0.847 | 0.674 | 0.985 | 1.18 | 0.879 | 0.835 | – | – | – | – | 0.464 | 0.53 | 0.452 | 0.467 |
| NCI-H441 | 0.637 | 0.531 | 0.763 | 0.702 | 0.379 | 0.358 | 0.429 | 0.351 | 0.337 | 0.347 | 0.31 | 0.244 | – | – | – | – | 0.304 | 0.259 | 0.222 | 0.254 |
| NCI-H522 | 0.8 | 0.725 | 0.812 | 0.651 | 1.07 | 1.51 | 1.26 | 1.21 | 1.25 | 1.21 | 1.3 | 0.971 | – | – | – | – | 1.19 | 1.14 | 0.941 | 1.24 |
| NCI-H727 | 0.591 | – | 0.477 | 0.47 | 0.343 | 0.335 | 0.264 | 0.902 | 0.417 | – | 0.343 | 0.236 | 0.804 | – | 0.754 | 0.718 | – | – | – | – |
| NCI-H1299 | – | – | – | – | – | – | – | – | – | – | – | – | 0.997 | 1.11 | 0.984 | 1.04 | – | – | – | – |
| NCI-H1648 | 0.27 | 0.257 | 0.274 | 0.276 | – | – | – | – | – | – | – | – | – | – | – | – | 0.671 | – | – | 0.823 |
| NCI-H1703 | – | – | – | – | – | – | – | – | – | – | – | – | 1.09 | 0.988 | 0.842 | 0.352 | – | – | – | – |
| NCI-H2342 | 0.521 | 0.706 | 0.644 | 0.493 | 0.704 | 0.708 | 0.738 | 0.754 | 0.723 | 0.717 | 0.87 | 0.61 | – | – | – | – | 0.785 | 0.72 | 0.794 | 0.73 |
| SW 900 | 0.536 | 0.588 | 0.497 | 0.356 | 0.192 | 0.198 | 0.189 | 0.151 | 0.178 | 0.175 | 0.184 | 0.159 | – | – | – | – | 0.468 | 0.477 | 0.488 | 0.478 |
